From ChEMBL document CHEMBL1201862, “PubChem BioAssay data set” (2004) come the findings set out here.

Among the test systems are RPMI-8226; NCI-H460; SF-268; HCT-15; COLO 205; NCI/ADR-RES; K562; OVCAR-8; OVCAR-4; LOX IMVI; U-251; M14; DU-145; UACC-62; 786-0; OVCAR-5; HOP-62; BT-549; Hs-578T.
Holding throughout (test): NCI-60 cell line screen, 48 h

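Protocol summary: plate cells (96-well), add compound at 5 concentrations, incubate 48 h, interpolate endpoints linearly. GI50 = concentration required for 50% inhibition of growth.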 Active and inactive are the calls of the source. No stated cut-off is given here; in the data, active = GI50 up to about 1.1 µM and inactive = higher. Some results are limits rather than exact numbers.

On to `CC1(c2ccc(Cl)s2)CC(c2ccc(Cl)s2)=C(C#N)C(=C(C#N)C#N)N1` (stereo not given), for which the GI50 in the assay with RPMI-8226 is 32 µM (inactive); in the assay on NCI-H460, 29 µM (inactive); in the assay with SF-268, 20.7 µM (inactive); in the assay with HCT-15, 17.4 µM; in the assay with COLO 205 it was 19.9 µM (inactive); in the assay on NCI/ADR-RES, 19.3 µM (inactive). In addition, the GI50 in the assay on K562 is 29.6 µM (inactive); in the assay on OVCAR-8, 20.8 µM (inactive); with OVCAR-4, 16.5 µM (inactive); in the assay on LOX IMVI, 22.3 µM (inactive); in the assay on U-251 it was 17.3 µM (inactive); in the assay on M14, 19.4 µM (inactive). Besides, the GI50 is 16.9 µM (inactive) in the assay with DU-145; 15.8 µM (inactive) in the assay with UACC-62; 19.8 µM (inactive) in the assay with 786-0; 19.4 µM (inactive) in the assay on OVCAR-5; 18.8 µM (inactive) in the assay on HOP-62; 20.9 µM (inactive) with BT-549. Also, the GI50 in the assay on Hs-578T is 29.5 µM (inactive).
Take `O=C(Nc1ccccc1)c1cc(S(=O)(=O)Nc2nc3cccnc3[nH]2)c(SSc2cc(Cl)c(C(=O)Nc3ccccc3)cc2S(=O)(=O)Nc2nc3cccnc3[nH]2)cc1Cl`: the GI50 in the assay with RPMI-8226 is > 100 µM (inactive); in the assay with NCI-H460 it was > 100 µM (inactive); in the assay with SF-268, > 100 µM (inactive); in the assay with HCT-15, greater than 100 µM; in the assay with COLO 205, > 100 µM (inactive); in the assay on NCI/ADR-RES, > 100 µM (inactive). In addition, the GI50 in the assay with K562, in the assay with OVCAR-8, in the assay with OVCAR-4, with LOX IMVI, in the assay with U-251 and in the assay with M14 was > 100 µM (inactive) throughout. The GI50 in the assay with DU-145, in the assay with UACC-62, with 786-0, in the assay with OVCAR-5, with HOP-62 and in the assay with BT-549 was > 100 µM (inactive) in each case. In addition, the GI50 in the assay on Hs-578T is > 100 µM (inactive).
Regarding `COc1ccccc1NC1Oc2cc3c(cc2C(c2cc(OC)c(OC)c(OC)c2)C1C)OCO3` (stereo not given), the GI50 in the assay with RPMI-8226 is 1.93 µM (inactive); in the assay on NCI-H460 it was 4.09 µM (inactive); in the assay with SF-268, 3.62 µM (inactive); in the assay with HCT-15, 3.06 µM; in the assay on COLO 205 it was 1.95 µM (inactive); in the assay on NCI/ADR-RES, 2.59 µM (inactive). Moreover, the GI50 in the assay with K562 was 0.875 µM (active); in the assay with OVCAR-8 it was 4.69 µM (inactive); in the assay with OVCAR-4, 6.37 µM (inactive); in the assay with LOX IMVI, 6.62 µM (inactive); in the assay on U-251, 2.92 µM (inactive); with M14, 3.26 µM (inactive). Moreover, the GI50 is 4.75 µM (inactive) with DU-145; 1.53 µM (inactive) in the assay on UACC-62; 3.5 µM (inactive) in the assay with 786-0; 6.64 µM (inactive) in the assay with OVCAR-5; 5.26 µM (inactive) in the assay on HOP-62; 2.84 µM (inactive) in the assay on BT-549. Further, in the assay with Hs-578T, the GI50 is 6.44 µM (inactive).
As for `Cc1[nH]n(-c2ncc(C(=O)O)c(=O)[nH]2)c(=O)c1CCO`, the GI50 was > 100 µM (inactive) with RPMI-8226; > 75.7 µM (inactive) in the assay on NCI-H460; > 100 µM (inactive) in the assay with SF-268; greater than 100 µM with HCT-15; > 88.9 µM (inactive) in the assay on COLO 205; > 100 µM (inactive) in the assay on NCI/ADR-RES. For the same compound, the GI50 in the assay on K562, in the assay with OVCAR-8, with OVCAR-4, in the assay on LOX IMVI, in the assay with U-251 and in the assay with M14 was > 100 µM (inactive) throughout. For the same compound, the GI50 in the assay on DU-145, with UACC-62, in the assay with 786-0, with OVCAR-5, in the assay with HOP-62 and with BT-549 was > 100 µM (inactive) throughout. The GI50 in the assay with Hs-578T is > 100 µM (inactive).
Consider `CN(C)CCC(C(=O)C(C)(C)C)c1ccccn1` (stereo not given), for which the GI50 in the assay on RPMI-8226 was > 100 µM (inactive); in the assay on NCI-H460, > 100 µM (inactive); in the assay on SF-268, > 100 µM (inactive); with HCT-15, greater than 100 µM; with COLO 205, > 100 µM (inactive); in the assay with NCI/ADR-RES, > 100 µM (inactive). In addition, the GI50 with K562, in the assay with OVCAR-8, in the assay on OVCAR-4, with LOX IMVI, in the assay with U-251 and with M14 was > 100 µM (inactive) each time. The GI50 with DU-145, in the assay on UACC-62, in the assay on 786-0, in the assay with OVCAR-5, in the assay on HOP-62 and with BT-549 was > 100 µM (inactive) throughout. Also, in the assay on Hs-578T, the GI50 is > 100 µM (inactive).
For the compound `Oc1ccc(/N=C/c2ccc(/C=N/c3ccc(O)cc3)cc2)cc1`, the GI50 in the assay with RPMI-8226 is 10.1 µM (inactive); with NCI-H460, 24.4 µM (inactive); with SF-268, 15.5 µM (inactive); in the assay on HCT-15, 15 µM; in the assay on COLO 205 it was 18.5 µM (inactive); in the assay on NCI/ADR-RES, 14.8 µM (inactive). The GI50 in the assay on K562 was 17.5 µM (inactive); in the assay with OVCAR-8, 13.8 µM (inactive); with OVCAR-4, 14.5 µM (inactive); in the assay on LOX IMVI, 16.1 µM (inactive); in the assay on U-251, 14.5 µM (inactive); in the assay with M14 it was 17.1 µM (inactive). Also, the GI50 in the assay on DU-145 was 18 µM (inactive); in the assay on UACC-62 it was 12.6 µM (inactive); with 786-0 it was 15.3 µM (inactive); with OVCAR-5 it was 19.3 µM (inactive); with HOP-62, 17.6 µM (inactive); in the assay with BT-549, 17.4 µM (inactive). For the same compound, the GI50 in the assay with Hs-578T was 23.6 µM (inactive).
Take `COc1ccc2c(c1)CCc1c(-c3noc4c3CCc3cc(OC)ccc3-4)noc1-2`: the GI50 in the assay on RPMI-8226 is > 100 µM (inactive); with NCI-H460 it was > 100 µM (inactive); in the assay with SF-268, > 100 µM (inactive); in the assay with HCT-15 it was greater than 100 µM; with COLO 205 it was > 100 µM (inactive); in the assay with NCI/ADR-RES, > 100 µM (inactive). Also, the GI50 in the assay with K562, in the assay with OVCAR-8, in the assay with OVCAR-4, in the assay with LOX IMVI, in the assay on U-251 and with M14 was > 100 µM (inactive) in each case. For the same compound, the GI50 in the assay with DU-145, in the assay on UACC-62, in the assay on 786-0, in the assay on OVCAR-5, with HOP-62 and in the assay on BT-549 was > 100 µM (inactive) throughout. Also, the GI50 with Hs-578T is > 100 µM (inactive).
For `O=C(CSc1nc(O)nc2[nH]cnc12)Nc1ccccc1`, the GI50 is > 100 µM (inactive) in the assay with RPMI-8226; > 100 µM (inactive) in the assay on NCI-H460; 69.2 µM (inactive) in the assay with SF-268; 61.9 µM in the assay on HCT-15; > 100 µM (inactive) in the assay on COLO 205; > 100 µM (inactive) in the assay on NCI/ADR-RES. Besides, the GI50 in the assay on K562 is 85.3 µM (inactive); in the assay on OVCAR-8, > 100 µM (inactive); in the assay on OVCAR-4, > 100 µM (inactive); with LOX IMVI, 54.5 µM (inactive); with U-251, 33.1 µM (inactive); in the assay with M14 it was > 100 µM (inactive). The GI50 is > 100 µM (inactive) in the assay on DU-145; 80.7 µM (inactive) in the assay with UACC-62; 57.5 µM (inactive) in the assay on 786-0; > 100 µM (inactive) in the assay with OVCAR-5; 52.8 µM (inactive) with HOP-62; 46.9 µM (inactive) in the assay on BT-549. In the assay with Hs-578T, the GI50 is 75 µM (inactive).
For the compound `c1cc(C[S+]2CCCC2)ccc1C[S+]1CCCC1`, the GI50 in the assay on RPMI-8226 was > 100 µM (inactive); with NCI-H460, > 100 µM (inactive); in the assay with SF-268, > 100 µM (inactive); in the assay with HCT-15, greater than 100 µM; in the assay on COLO 205, > 100 µM (inactive); with NCI/ADR-RES, > 100 µM (inactive). Also, the GI50 with K562, with OVCAR-8, with OVCAR-4, in the assay with LOX IMVI, in the assay with U-251 and in the assay with M14 was > 100 µM (inactive) in each case. In addition, the GI50 with DU-145, with UACC-62, in the assay on 786-0, with OVCAR-5, in the assay on HOP-62 and in the assay with BT-549 was > 100 µM (inactive) throughout. The GI50 in the assay on Hs-578T is > 100 µM (inactive).
Consider `O=C1c2ccccc2-c2c1c1ccccc1c(=O)n2CCO`, for which the GI50 in the assay with RPMI-8226 was > 26.9 µM (inactive); with NCI-H460, 1.82 µM (inactive); with SF-268, 19.1 µM (inactive); in the assay on HCT-15, 5.83 µM; with COLO 205, 4.9 µM (inactive); with NCI/ADR-RES it was 14.6 µM (inactive). Also, the GI50 in the assay on K562 was > 36 µM (inactive); in the assay on OVCAR-8, 9.38 µM (inactive); with OVCAR-4, 33.2 µM (inactive); in the assay with LOX IMVI, 5.28 µM (inactive); in the assay on U-251 it was 8.61 µM (inactive); in the assay on M14, > 100 µM (inactive). The GI50 with DU-145 is 13.5 µM (inactive); with UACC-62 it was 11.5 µM (inactive); with 786-0 it was 6.03 µM (inactive); with OVCAR-5, > 100 µM (inactive); with HOP-62 it was 5.4 µM (inactive); with BT-549 it was 18.5 µM (inactive). Further, the GI50 in the assay on Hs-578T is 29.8 µM (inactive).
